Test results from US7279576B2 (Deciphera Pharmaceuticals, LLC, priority 2002, dated 2007).

Each compound was assayed against T1, nonphosphorylated Abl kinase (Homo sapiens, UniProt P00519) (assay: Abl kinase assay (continuous spectrophotometric, pyruvate kinase/lactate dehydrogenase coupled)). Conditions: not given.
T1 construct: purchased deCode Abl-2
Format: biochemical
Method: A continuous spectrophotometric kinase assay is used, wherein the production of adenosine diphosphate is coupled to the oxidation of NADH and measured as a reduction in absorbance at 340 nm. For details see: Barker, S. C. et al, Biochemistry (1995) 34:14843; and Schindler, T. et al, Science (2000) 289:1938.
The reaction mixture (200 μl) contained Abl kinase (3.7 nM. Abl-2 from deCode), peptide substrate ([…], 0.5 mM), ATP (0.5 mM), MgCl2 (5 mM), pyruvate kinase (16 units), lactate dehydrogenase (26 units), phosphoenol pyruvate (1 mM), and NADH (0.28 mM) in 100 mM Tris buffer, pH 7.5. The reaction was initiated by adding ATP. The absorption at 340 nm was monitored continuously for 3 to 4 hours at 30° C. on Polarstar Optima plate reader (BMG). Under these conditions, a turn over number (kcat) of 1.4 s^−1 was obtained for the preparation of Abl kinase, which is similar to that (1.7 s^−1) reported for the nonphosphorylated enzyme (Brasher and Van Etten, JBC (2000) 275, 35631-35637). No autophosphorylation of Abl was observed under these conditions since the rate is constant throughout the entire reaction time and presumably because the concentration of the enzyme used is below the critical level (˜10 nM) needed for the autophosphorylation (Brasher and Van Etten, JBC (2000) 275, 35631-35637).
Percentage of inhibition in the presence of an inhibitor was obtained by comparison of reaction rate (or slope) with that of a control. IC50 value was calculated from a series of % inhibition values determined at a range of concentrations of the inhibitor using Prism.

T1 sequence (P00519 whole entry): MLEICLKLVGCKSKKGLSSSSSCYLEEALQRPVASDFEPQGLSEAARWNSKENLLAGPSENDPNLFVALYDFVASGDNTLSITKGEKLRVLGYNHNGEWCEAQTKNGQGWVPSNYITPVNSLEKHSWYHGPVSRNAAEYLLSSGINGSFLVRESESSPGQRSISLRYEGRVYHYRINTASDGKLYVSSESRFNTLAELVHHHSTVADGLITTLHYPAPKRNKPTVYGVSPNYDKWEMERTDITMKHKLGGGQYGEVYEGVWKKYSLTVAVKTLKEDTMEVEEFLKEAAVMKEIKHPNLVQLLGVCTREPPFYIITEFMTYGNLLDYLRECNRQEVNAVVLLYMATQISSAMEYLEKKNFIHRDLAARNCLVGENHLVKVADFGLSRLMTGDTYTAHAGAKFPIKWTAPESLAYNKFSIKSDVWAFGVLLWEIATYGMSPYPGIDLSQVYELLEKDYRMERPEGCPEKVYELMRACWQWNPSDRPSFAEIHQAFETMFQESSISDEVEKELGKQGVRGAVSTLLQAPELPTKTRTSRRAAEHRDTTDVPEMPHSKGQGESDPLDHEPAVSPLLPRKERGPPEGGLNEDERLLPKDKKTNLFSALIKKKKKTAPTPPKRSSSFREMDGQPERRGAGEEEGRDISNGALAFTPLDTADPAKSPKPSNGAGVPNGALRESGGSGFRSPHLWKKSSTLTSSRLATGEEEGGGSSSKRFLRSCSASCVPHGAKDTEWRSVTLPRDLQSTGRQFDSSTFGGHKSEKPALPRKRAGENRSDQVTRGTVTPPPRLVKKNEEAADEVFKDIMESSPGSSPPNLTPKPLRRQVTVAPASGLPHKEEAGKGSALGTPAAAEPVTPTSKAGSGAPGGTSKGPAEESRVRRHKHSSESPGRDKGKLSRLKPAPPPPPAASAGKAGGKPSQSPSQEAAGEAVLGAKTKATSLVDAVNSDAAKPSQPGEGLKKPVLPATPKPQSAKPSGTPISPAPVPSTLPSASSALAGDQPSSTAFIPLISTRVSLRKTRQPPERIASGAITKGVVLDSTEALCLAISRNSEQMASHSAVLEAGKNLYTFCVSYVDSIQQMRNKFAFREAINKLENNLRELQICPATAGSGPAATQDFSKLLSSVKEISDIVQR

SMILES	IC50
Cc1ccc(NC(=O)c2ccc(C(=O)N3C(=O)OC[C@H]3c3ccccc3)cc2)cc1Nc1nccc(-c2cccnc2)n1 [Example 18, D-4-(2-oxo-4-phenyl-oxazolidine-3-carbonyl)-N-[4-methyl-3-(4-pyridin-3-yl-pyrimidin-2-ylamino)-phenyl]benzamide]	3 µM
Cc1ccc(NC(=O)c2ccc(C(=O)N3C(=O)OC[C@@H]3c3ccccc3)cc2)cc1Nc1nccc(-c2cccnc2)n1 [Example 19, L-4-(2-oxo-4-phenyl-oxazolidine-3-carbonyl)-N-[4-methyl-3-(4-pyridin-3-yl-pyrimidin-2-ylamino)-phenyl]benzamide]	4 µM

Same assay, conditions: read-out: % Inhi @ 10 uM

SMILES	inhibition at 10 µM
Cc1ccc(NC(=O)c2ccc(CNS(=O)(=O)NC(=O)N3CCCC3)cc2)cc1Nc1nccc(-c2ccccc2)n1 [Example 1]	10%
Cc1ccc(NC(=O)c2ccc(CNS(=O)(=O)NC(=O)N3CCCC3)cc2)cc1Nc1ncccn1 [Example 2]	9%
Cc1ccc(NC(=O)c2ccc(CNC(=O)NS(=O)(=O)N3CCCC3)cc2)cc1Nc1nccc(-c2ccccc2)n1 [Example 3]	15%
Cc1ccc(NC(=O)c2ccc(CNC(=O)NS(=O)(=O)N3CCCC3)cc2)cc1Nc1ncccn1 [Example 4]	24%
Cc1ccc(NC(=O)c2ccc(CN3CC(=O)N(C)C3=O)cc2)cc1Nc1ncccn1 [Example 5, 4-((3-methyl-2,4-dioxoimidazolidin-1-yl)methyl)-N-(4-methyl-3-(pyrimidin-2-ylamino)phenyl)benzamide]	9%
Cc1ccc(NC(=O)c2ccc(CN3CC(=O)N(C)C3=O)cc2)cc1Nc1nccc(-c2ccccc2)n1 [Example 6, N-(3-(4-phenylpyrimidin-2-ylamino)-4-methylphenyl)-4-((3-methyl-2,4-dioxoimidazolidin-1-yl)methyl)benzamide]	13%
CNC(=O)CN(CC(=O)NC)C(=O)c1ccc(C(=O)Nc2ccc(C)c(Nc3ncccn3)c2)cc1 [Example 7, N^1,N^1-bis((methylcarbamoyl)methyl)-N^4-(4-methyl-3-(pyrimidin-2-ylamino)phenyl)terephthalamide]	9%
CNC(=O)CN(CC(=O)NC)C(=O)c1ccc(C(=O)Nc2ccc(C)c(Nc3nccc(-c4ccccc4)n3)c2)cc1 [Example 8, N^1,N^1-bis((methylcarbamoyl)methyl)-N^4-(3-(4-phenylpyrimidin-2-ylamino)4-methylphenyl)terephthalamide]	20%
Cc1ccc(NC(=O)c2ccc(Cn3sc(=O)n(-c4ccccc4)c3=O)cc2)cc1Nc1nccc(-c2ccccc2)n1 [Example 9, N-(3-(4-phenylpyrimidin-2-ylamino)-4-methylphenyl)-4-((3,5-dioxo-4-phenyl-1,2,4-thiadiazolidin-2-yl)methyl)benzamide]	42%
Cc1ccc(NC(=O)c2ccc(CN3CC(=O)NS3(=O)=O)cc2)cc1Nc1nccc(-c2cccnc2)n1 [Example 10]	16%
Cc1ccc(NC(=O)c2ccc(CN3C(=O)CNS3(=O)=O)cc2)cc1Nc1nccc(-c2ccccc2)n1 [Example 12, N-[4-Methyl-3-(4-phenyl-pyrimidin-2-ylamino)-phenyl]-4-(1,1,3-trioxo-[1,2,5]thiadiazolidin-2-ylmethyl)-benzamide]	52%
Cc1ccc(NC(=O)c2ccc(CN3CCS(=O)(=O)CC3)cc2)cc1Nc1ncccn1 [Example 13, 4-(((4,4-dioxothiomorpholinomethyl)1)methyl)-N-(4-methyl-3-(pyrimidin-2-ylamino)phenyl)benzamide]	31%
Cc1ccc(NC(=O)c2ccc(CN3CCS(=O)(=O)CC3)cc2)cc1Nc1nccc(N2CCOCC2)n1 [Example 15, 4-(((4,4-dioxothiomorpholinomethyl)1)methyl)-N-(4-methyl-3-(4-morpholinopyrimidin-2-ylamino)phenyl)benzamide]	7%
Cc1ccc(NC(=O)c2ccc(C(=O)N3C(=O)OC[C@H]3c3ccccc3)cc2)cc1Nc1nccc(-c2ccccc2)n1 [Example 16, D-4-(2-oxo-4-phenyl-oxazolidine-3-carbonyl)-N-(4-methyl-3-(4-phenylpyrimidin-2-ylamino)phenyl)benzamide]	9%
Cc1ccc(NC(=O)c2ccc(C(=O)N3C(=O)OC[C@@H]3c3ccccc3)cc2)cc1Nc1nccc(-c2ccccc2)n1 [Example 17, L-4-(2-oxo-4-phenyl-oxazolidine-3-carbonyl)-N-(4-methyl-3-(4-phenylpyrimidin-2-ylamino)phenyl)benzamide]	18%
Cc1ccc(NC(=O)c2ccc(C(=O)N3C(=O)OC[C@H]3c3ccccc3)cc2)cc1Nc1nccc(-c2cccnc2)n1 [Example 18, D-4-(2-oxo-4-phenyl-oxazolidine-3-carbonyl)-N-[4-methyl-3-(4-pyridin-3-yl-pyrimidin-2-ylamino)-phenyl]benzamide]	70%
Cc1ccc(NC(=O)c2ccc(C(=O)N3C(=O)OC[C@@H]3c3ccccc3)cc2)cc1Nc1nccc(-c2cccnc2)n1 [Example 19, L-4-(2-oxo-4-phenyl-oxazolidine-3-carbonyl)-N-[4-methyl-3-(4-pyridin-3-yl-pyrimidin-2-ylamino)-phenyl]benzamide]	75%
Cc1ccc(NC(=O)c2ccc(Cn3c(=O)[nH]n(C)c3=O)cc2)cc1Nc1ncccn1 [Example 21, 4-((1-methyl-3,5-dioxo-1,2,4-triazolidin-4-yl)methyl)-N-(4-methyl-3-(pyrimidin-2-ylamino)phenyl)benzamide]	12%
Cc1ccc(NC(=O)c2ccc(CN3CC(=O)NS3(=O)=O)cc2)cc1Nc1nccc(-c2ccccc2)n1 [Example 23]	10%
